# In patent publication US9296704B2, “Substituted pyrimidines as protein kinase inhibitors” (CELGENE AVILOMICS RESEARCH, INC., priority 2007, dated 2016):
# Legend:
# [1] = molecular target: T1, EGFR wild type (Homo sapiens, UniProt P00533); experiment: Mass spectrometry for EGFR wild type (covalent modification); type: binding; conditions: 10-fold excess of compound, 1 hr and 3 hrs, MALDI
# T1 construct: Amino acids 696 to 1022 of the EGFR-WT kinase domain; six-histidine tag (TEV-cleavable) (C); made in house; host or cells: SF21 insect cells (baculovirus; P1 stocks in SF9)
# Method: Amino acids 696 to 1022 of the EGFR-WT kinase domain (NM_005228, NP_005219.2) was subcloned into the NcoI and HindIII sites of the pFastHTa vector (Invitrogen, Carlsbad, Calif.). To make the EGFR-mutant protein, the cysteine at position 797 was changed to a serine using the Stratagene QuikChange kit (Stratagene, Cedar Creek, Tex.), according to manufacturer's instructions.
# EGFR wild type and EGFR mutant (C797S) was incubated with 10-fold excess of compound I-1 for 1 hr and 3 hrs. 1 ul aliquots of the samples (total volume 5-8 ul) were diluted with 10 ul of 0.1% TFA prior to micro C4 ZipTipping directly onto the MALDI target using Sinapinic acid as the desorption matrix (10 mg/ml in 0.1% TFA:Acetonitrile 50:50). […] (See FIG. 8).
# [2] = molecular target: T2, TEC kinase (Homo sapiens, UniProt P42680); experiment: Mass spectrometry for TEC kinase (tryptic digest); type: binding, homo sapien; conditions: 10× excess, 3 hrs, MALDI
# T2 construct: purchased Invitrogen
# T2 sequence (P42680 1-631): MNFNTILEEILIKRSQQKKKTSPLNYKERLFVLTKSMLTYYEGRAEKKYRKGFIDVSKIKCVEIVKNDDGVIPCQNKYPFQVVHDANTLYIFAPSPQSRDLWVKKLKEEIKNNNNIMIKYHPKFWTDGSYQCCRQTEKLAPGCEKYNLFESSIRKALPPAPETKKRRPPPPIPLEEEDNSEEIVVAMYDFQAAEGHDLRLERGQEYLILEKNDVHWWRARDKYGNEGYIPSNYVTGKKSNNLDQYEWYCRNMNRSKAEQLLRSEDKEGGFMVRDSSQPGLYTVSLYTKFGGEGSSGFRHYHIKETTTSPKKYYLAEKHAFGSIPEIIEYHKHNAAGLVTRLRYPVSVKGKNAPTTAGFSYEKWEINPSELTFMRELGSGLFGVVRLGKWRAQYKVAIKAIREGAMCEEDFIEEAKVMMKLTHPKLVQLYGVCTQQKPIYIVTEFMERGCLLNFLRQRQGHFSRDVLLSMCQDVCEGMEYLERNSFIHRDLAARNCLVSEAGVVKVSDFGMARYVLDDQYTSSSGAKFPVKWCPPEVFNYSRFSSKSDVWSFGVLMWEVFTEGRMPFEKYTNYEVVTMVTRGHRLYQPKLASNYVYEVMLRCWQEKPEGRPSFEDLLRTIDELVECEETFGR
# Method: TEC kinase (45 pmols; Invitrogen) was incubated with (I-13) (450 pmols) for 3 hrs at 10× access prior to tryptic digestion. Iodoacetamide was used as the alkylating agent after compound incubation. […] For tryptic digests a 5 ul aliquot (7.5 pmols) was diluted with 15 ul of 0.1% TFA prior to micro C18 Zip Tipping directly onto the MALDI target using alpha cyano-4-hydroxy cinnamic acid as the matrix (5 mg/ml in 0.1% TFA:Acetonitrile 50:50).
# As depicted in FIG. 11, the expected peptide (GCLLNFLR) to be modified was immediately evident at MH+ of 1358.65. This is the mass to be expected when compound I-13, with an adduct mass of 423.17, is added to the peptide mass of 935.51. The peptide was also quite evident in the control sample as modified by Iodacetamide at MH+ of 992.56. […] There was no evidence of any other modified peptides.
# To further verify the presence of the modified peptide with compound I-13, the peptide at MH+ of 1358.65 was subjected to PSD (MS/MS) analysis. A correlational analysis with the homo sapien database identified the correct peptide modified by I-13.
# For tryptic digests the instrument was set in Reflectron mode with a pulsed extraction setting of 2200. Calibration was done using the Laser Biolabs Pep Mix standard (1046.54, 1296.69, 1672.92, 2093.09, 2465.20). […]
# T1 sequence (P00533 696-1022): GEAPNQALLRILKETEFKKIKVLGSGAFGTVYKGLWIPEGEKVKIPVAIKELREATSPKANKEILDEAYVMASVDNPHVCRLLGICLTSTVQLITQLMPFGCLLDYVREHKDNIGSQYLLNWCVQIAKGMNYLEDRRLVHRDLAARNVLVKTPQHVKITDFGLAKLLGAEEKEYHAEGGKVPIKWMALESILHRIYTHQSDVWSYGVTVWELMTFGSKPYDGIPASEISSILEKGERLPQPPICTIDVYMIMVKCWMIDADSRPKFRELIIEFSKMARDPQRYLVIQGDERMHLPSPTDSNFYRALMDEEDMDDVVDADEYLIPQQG
SMILES,reactivity with EGFR wild type by intact mass [1],modification of TEC peptide GCLLNFLR in tryptic digest [2]
"C=CC(=O)Nc1cccc(Nc2cc(Nc3cccc(Br)c3)ncn2)c1 [I-1, N-{3-[6-(3-bromophenylamino)-pyrimidin-4-ylamino]-phenyl}-2-propenamide]",single site covalent modification,
"C=CC(=O)Nc1cccc(Nc2cc(Nc3ccc(Oc4ccccc4)cc3)ncn2)c1 [I-13, N-{3-[6-(4-phenoxyphenylamino)-pyrimidin-4-ylamino]phenyl}-2 propenamide]",,reaction was complete
